For the test, the target named is ER (Homo sapiens (Human), UniProt P03372). The test is described as follows: Western blot analysis (Compounds B1-B278). Format: cell-based. The note with it: ER degradation by traditional Western blot; DC50 classes. The gist of the method: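 Relative target-protein levels come from densitometry of immunoblots, normalized to GAPDH. Lysates from treated cells were prepared in RIPA buffer (pH 7.6) containing protease inhibitors, and equal protein amounts, checked by BCA, were separated on 10% gels and blotted onto PVDF.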
Chain of ER (P03372 whole entry): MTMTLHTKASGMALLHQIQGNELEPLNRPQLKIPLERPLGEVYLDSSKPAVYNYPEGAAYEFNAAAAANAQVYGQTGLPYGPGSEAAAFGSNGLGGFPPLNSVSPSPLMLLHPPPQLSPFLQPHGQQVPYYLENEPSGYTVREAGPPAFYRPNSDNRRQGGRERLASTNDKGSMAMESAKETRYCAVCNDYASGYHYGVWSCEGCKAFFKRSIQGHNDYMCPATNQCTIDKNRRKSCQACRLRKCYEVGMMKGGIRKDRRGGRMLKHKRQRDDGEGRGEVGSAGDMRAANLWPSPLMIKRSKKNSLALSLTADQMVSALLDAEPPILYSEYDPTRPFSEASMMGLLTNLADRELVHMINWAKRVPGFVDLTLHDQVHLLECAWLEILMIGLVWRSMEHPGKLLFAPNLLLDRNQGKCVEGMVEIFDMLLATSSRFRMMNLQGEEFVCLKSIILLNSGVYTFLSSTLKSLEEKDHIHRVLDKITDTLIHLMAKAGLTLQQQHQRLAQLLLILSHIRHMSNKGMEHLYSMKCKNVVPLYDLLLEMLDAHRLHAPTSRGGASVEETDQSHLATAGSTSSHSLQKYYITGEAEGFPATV
Background: In western blotting, separated proteins are transferred to a membrane and probed.
Turning to `C[C@@H]1Cc2c([nH]c3ccccc23)[C@@H](c2c(F)cc(-c3ccc(C(=O)N4CCC(N5Cc6cc7c(cc6C5)C(=O)N(C5CCC(=O)NC5=O)C7=O)CC4)cc3)cc2F)N1CC(F)F` (stereo partly drawn) [Compound B93, 6-(1-(4′-((1R,3R)-2-(2,2-difluoroethyl)-3-methyl-2,3,4,9-tetrahydro-1H-pyrido[3,4-b]indol-1-yl)-3′,5′-difluoro-[1,1′-biphenyl]-4-carbonyl)piperidin-4-yl)-2-(2,6-dioxopiperidin-3-yl)-6,7-dihydropyrrolo[3,4-f]isoindole-1,3(2H,5H)-dione], the “Traditional Western Degradation Potency” value was “A (“A”: <10 nM)”.

For `C[C@@H]1Cc2c([nH]c3ccccc23)[C@@H](c2c(F)cc(C3CCN(C(=O)C4CCC(N5Cc6cc7c(cc6C5)C(=O)N(C5CCC(=O)NC5=O)C7=O)CC4)CC3)cc2F)N1CC(F)F` (stereo partly drawn) [Compound B94, 6-(4-(4-(4-((1R,3R)-2-(2,2-difluoroethyl)-3-methyl-2,3,4,9-tetrahydro-1H-pyrido[3,4-b]indol-1-yl)-3,5-difluorophenyl)piperidine-1-carbonyl)cyclohexyl)-2-(2,6-dioxopiperidin-3-yl)-6,7-dihydropyrrolo[3,4-f]isoindole-1,3(2H,5H)-dione], the “Traditional Western Degradation Potency” value is “B (“B”: 10-100 nM)”.

Regarding `C[C@@H]1Cc2c([nH]c3ccccc23)[C@@H](c2c(F)cc(C3CCN(C[C@H]4CC[C@H](N5Cc6cc7c(cc6C5)C(=O)N(C5CCC(=O)NC5=O)C7=O)CC4)CC3)cc2F)N1CC(F)F` (stereo partly drawn) [Compound B95, 6-((1R,4r)-4-((4-(4-((1R,3R)-2-(2,2-difluoroethyl)-3-methyl-2,3,4,9-tetrahydro-1H-pyrido[3,4-b]indol-1-yl)-3,5-difluorophenyl)piperidin-1-yl)methyl)cyclohexyl)-2-(2,6-dioxopiperidin-3-yl)-6,7-dihydropyrrolo[3,4-f]isoindole-1,3(2H,5H)-dione], the “Traditional Western Degradation Potency” value is listed as “C (“C”: >100 nM)”.

For `C[C@@H]1Cc2c([nH]c3ccccc23)[C@@H](c2c(F)cc(C3CCN(C[C@H]4CC[C@H](N5Cc6cc7c(cc6C5)C(=O)N(C5CCC(=O)NC5=O)C7=O)CC4)CC3)cc2F)N1CC(F)F` (stereo partly drawn) [Compound B96, 6-((1R,4r)-4-((4-(4-((1R,3R)-2-(2,2-difluoroethyl)-3-methyl-2,3,4,9-tetrahydro-1H-pyrido[3,4-b]indol-1-yl)-3,5-difluorophenyl)piperidin-1-yl)methyl)cyclohexyl)-2-(2,6-dioxopiperidin-3-yl)-6,7-dihydropyrrolo[3,4-f]isoindole-1,3(2H,5H)-dione], the “Traditional Western Degradation Potency” value is listed as “C (“C”: >100 nM)”.

As for `C[C@@H]1Cc2c([nH]c3ccccc23)[C@@H](c2c(F)cc(C(=O)N3CCC4(CC3)CC(CN3Cc5cc6c(cc5C3)C(=O)N(C3CCC(=O)NC3=O)C6=O)C4)cc2F)N1CC(F)F` (stereo partly drawn) [Compound B97, 6-((7-(4-((1R,3R)-2-(2,2-difluoroethyl)-3-methyl-2,3,4,9-tetrahydro-1H-pyrido[3,4-b]indol-1-yl)-3,5-difluorobenzoyl)-7-azaspiro[3.5]nonan-2-yl)methyl)-2-(2,6-dioxopiperidin-3-yl)-6,7-dihydropyrrolo[3,4-f]isoindole-1,3(2H,5H)-dione], the “Traditional Western Degradation Potency” value is listed as “C (“C”: >100 nM)”.

Regarding `C[C@@H]1Cc2c([nH]c3ccccc23)[C@@H](c2c(F)cc(CN3CCC4(CC3)CC(CN3Cc5cc6c(cc5C3)C(=O)N(C3CCC(=O)NC3=O)C6=O)C4)cc2F)N1CC(F)F` (stereo partly drawn) [Compound B98, 6-((7-(4-((1R,3R)-2-(2,2-difluoroethyl)-3-methyl-2,3,4,9-tetrahydro-1H-pyrido[3,4-b]indol-1-yl)-3,5-difluorobenzyl)-7-azaspiro[3.5]nonan-2-yl)methyl)-2-(2,6-dioxopiperidin-3-yl)-6,7-dihydropyrrolo[3,4-f]isoindole-1,3(2H,5H)-dione], the “Traditional Western Degradation Potency” value is recorded as “C (“C”: >100 nM)”.

For the molecule `C[C@@H]1Cc2c([nH]c3ccccc23)[C@@H](c2c(F)cc(C(=O)N3CCC4(CCC(CN5Cc6cc7c(cc6C5)C(=O)N(C5CCC(=O)NC5=O)C7=O)CC4)CC3)cc2F)N1CC(F)F` (stereo partly drawn) [Compound B99, 6-((3-(4-((1R,3R)-2-(2,2-difluoroethyl)-3-methyl-2,3,4,9-tetrahydro-1H-pyrido[3,4-b]indol-1-yl)-3,5-difluorobenzoyl)-3-azaspiro[5.5]undecan-9-yl)methyl)-2-(2,6-dioxopiperidin-3-yl)-6,7-dihydropyrrolo[3,4-f]isoindole-1,3(2H,5H)-dione], the “Traditional Western Degradation Potency” value is listed as “C (“C”: >100 nM)”.

Turning to `C[C@@H]1Cc2c([nH]c3ccccc23)[C@H](c2c(F)cc(C(=O)N3CCC4(CCC(CN5Cc6cc7c(cc6C5)C(=O)N(C5CCC(=O)NC5=O)C7=O)CC4)CC3)cc2F)N1CC(F)F` (stereo partly drawn) [Compound B100, 6-((3-(4-((1S,3R)-2-(2,2-difluoroethyl)-3-methyl-2,3,4,9-tetrahydro-1H-pyrido[3,4-b]indol-1-yl)-3,5-difluorobenzoyl)-3-azaspiro[5.5]undecan-9-yl)methyl)-2-(2,6-dioxopiperidin-3-yl)-6,7-dihydropyrrolo[3,4-f]isoindole-1,3(2H,5H)-dione], the “Traditional Western Degradation Potency” value was “C (“C”: >100 nM)”.

Consider `C[C@@H]1Cc2c([nH]c3ccccc23)[C@@H](c2c(F)cc(CN3CCC4(CCC(CN5Cc6cc7c(cc6C5)C(=O)N(C5CCC(=O)NC5=O)C7=O)CC4)CC3)cc2F)N1CC(F)F` (stereo partly drawn) [Compound B101, 6-((3-(4-((1R,3R)-2-(2,2-difluoroethyl)-3-methyl-2,3,4,9-tetrahydro-1H-pyrido[3,4-b]indol-1-yl)-3,5-difluorobenzyl)-3-azaspiro[5.5]undecan-9-yl)methyl)-2-(2,6-dioxopiperidin-3-yl)-6,7-dihydropyrrolo[3,4-f]isoindole-1,3(2H,5H)-dione], for which the “Traditional Western Degradation Potency” value was “C (“C”: >100 nM)”.

On to `C[C@@H]1Cc2c([nH]c3ccccc23)[C@H](c2c(F)cc(CN3CCC4(CCC(CN5Cc6cc7c(cc6C5)C(=O)N(C5CCC(=O)NC5=O)C7=O)CC4)CC3)cc2F)N1CC(F)F` (stereo partly drawn) [Compound B102, 6-((3-(4-((1S,3R)-2-(2,2-difluoroethyl)-3-methyl-2,3,4,9-tetrahydro-1H-pyrido[3,4-b]indol-1-yl)-3,5-difluorobenzyl)-3-azaspiro[5.5]undecan-9-yl)methyl)-2-(2,6-dioxopiperidin-3-yl)-6,7-dihydropyrrolo[3,4-f]isoindole-1,3(2H,5H)-dione], for which the “Traditional Western Degradation Potency” value is on record as “C (“C”: >100 nM)”.

Take `C[C@@H]1Cc2c([nH]c3ccccc23)[C@@H](c2c(F)cc(CN3CCC4(CCC(C(=O)N5Cc6cc7c(cc6C5)C(=O)N(C5CCC(=O)NC5=O)C7=O)CC4)CC3)cc2F)N1CC(F)F` (stereo partly drawn) [Compound B103, 6-(3-(4-((1R,3R)-2-(2,2-difluoroethyl)-3-methyl-2,3,4,9-tetrahydro-1H-pyrido[3,4-b]indol-1-yl)-3,5-difluorobenzyl)-3-azaspiro[5.5]undecane-9-carbonyl)-2-(2,6-dioxopiperidin-3-yl)-6,7-dihydropyrrolo[3,4-f]isoindole-1,3(2H,5H)-dione]: the “Traditional Western Degradation Potency” value was “C (“C”: >100 nM)”.

As for `C[C@@H]1Cc2c([nH]c3ccccc23)[C@H](c2c(F)cc(CN3CCC4(CCC(C(=O)N5Cc6cc7c(cc6C5)C(=O)N(C5CCC(=O)NC5=O)C7=O)CC4)CC3)cc2F)N1CC(F)F` (stereo partly drawn) [Compound B104, 6-(3-(4-((1S,3R)-2-(2,2-difluoroethyl)-3-methyl-2,3,4,9-tetrahydro-1H-pyrido[3,4-b]indol-1-yl)-3,5-difluorobenzyl)-3-azaspiro[5.5]undecane-9-carbonyl)-2-(2,6-dioxopiperidin-3-yl)-6,7-dihydropyrrolo[3,4-f]isoindole-1,3(2H,5H)-dione], the “Traditional Western Degradation Potency” value is “C (“C”: >100 nM)”.

Regarding `C[C@@H]1Cc2c([nH]c3ccccc23)[C@@H](c2c(F)cc(C3CCN(C(=O)[C@H]4CC[C@@H](N5Cc6cc7c(cc6C5)C(=O)N(C5CCC(=O)NC5=O)C7=O)CC4)CC3)cc2F)N1CC(F)F` (stereo partly drawn) [Compound B105, 6-((1S,4s)-4-(4-(4-((1R,3R)-2-(2,2-difluoroethyl)-3-methyl-2,3,4,9-tetrahydro-1H-pyrido[3,4-b]indol-1-yl)-3,5-difluorophenyl)piperidine-1-carbonyl)cyclohexyl)-2-(2,6-dioxopiperidin-3-yl)-6,7-dihydropyrrolo[3,4-f]isoindole-1,3(2H,5H)-dione], the “Traditional Western Degradation Potency” value is listed as “B (“B”: 10-100 nM)”.

With `C[C@@H]1Cc2c([nH]c3ccccc23)[C@@H](c2c(F)cc(C3CCN(C(=O)[C@H]4CC[C@H](N5Cc6cc7c(cc6C5)C(=O)N(C5CCC(=O)NC5=O)C7=O)CC4)CC3)cc2F)N1CC(F)F` (stereo partly drawn) [Compound B106, 6-((1R,4r)-4-(4-(4-((1R,3R)-2-(2,2-difluoroethyl)-3-methyl-2,3,4,9-tetrahydro-1H-pyrido[3,4-b]indol-1-yl)-3,5-difluorophenyl)piperidine-1-carbonyl)cyclohexyl)-2-(2,6-dioxopiperidin-3-yl)-6,7-dihydropyrrolo[3,4-f]isoindole-1,3(2H,5H)-dione], the “Traditional Western Degradation Potency” value is “A (“A”: <10 nM)”.

`COc1cc([C@H]2CC[C@@H](C(=O)N3CCC(N4Cc5cc6c(cc5C4)C(=O)N(C4CCC(=O)NC4=O)C6=O)CC3)CC2)ncc1[C@@H]1c2[nH]c3ccccc3c2C[C@@H](C)N1CC(F)F` (stereo partly drawn) [Compound B107, 6-(1-((1S,4s)-4-(5-((1R,3R)-2-(2,2-difluoroethyl)-3-methyl-2,3,4,9-tetrahydro-1H-pyrido[3,4-b]indol-1-yl)-4-methoxypyridin-2-yl)cyclohexane-1-carbonyl)piperidin-4-yl)-2-(2,6-dioxopiperidin-3-yl)-6,7-dihydropyrrolo[3,4-f]isoindole-1,3(2H,5H)-dione]: the “Traditional Western Degradation Potency” value was “C (“C”: >100 nM)”.

The values are drawn from patent US20260007681A1, “INDOLE DERIVATIVES AS ESTROGEN RECEPTOR DEGRADERS” (REGENTS OF THE UNIVERSITY OF MICHIGAN, priority 2022, published 2026).
